This note sets out measurements from patent US11999723B2, “Pyrazole-containing macrophage migration inhibitory factor inhibitors” (priority 2018, dated 2024).

In general, solubility refers to the concentration that dissolves in the medium under given conditions. A high value points to a readily soluble substance. A word on the Ki: it is the dissociation constant of the complex between target and ligand, obtained from inhibition or displacement.

The structures appear in SMILES notation. Converted amounts (≈) assume the structure as drawn. “And” between values parts separate entries of the source, which are not always exact repeats. Equal values may be shown once. Read-outs that look alike come from different tables or passages of the source.

The nature of series [1]: Aqueous solubility, shake-flask method. The series is classed as physicochemical. To be noted: Britton-Robinson buffer at pH 6.5; for solubility at 48 h: 30 °C, aqueous buffer, thermodynamic from solid. Here is the method: Aqueous solubility values of selected compounds were obtained via the shake-flask method. The solid sample (1-4 mg) was suspended in 1.5-2.0 mL Britton-Robinson (BR) buffer (0.04 M acetic acid, 0.04 M phosphoric acid, 0.04 M boric acid, pH 6.5). The mixture, containing excess undissolved compound, was stirred at 30° C. for 48 hours. The saturated solution was separated from the precipitate by filtration through a 0.45 μm polyethersulfone membrane (VWR International). The filtrate was diluted with BR buffer if necessary, then cut with an equal volume of DMSO. UV-vis absorbance was measured with an Agilent 8453 UV-visible Spectroscopy System (200-900 nm). Calibration curves were prepared with sample concentrations ranging from 0.24 μg/mL-0.25 mg/mL in 50:50 DMSO/BR buffer. Reported solubility results are the average values of two shake-flask experiments run in parallel. Piroxicam (purchased from Sigma-Aldrich) was used as a control, using BR buffer at pH 3.73.
The compounds reported here are listed in Table 2 along with the results from the tautomerase assay. The identity of assayed compounds was confirmed by ^1H and ^13C NMR and high-resolution mass spectrometry; HPLC analyses established purity as >95%. As in prior studies, the inhibition constants Ki were determined using HPP as the substrate. Inhibitory activity is monitored by measuring formation of the borate complex of the enol product at 305 nm using a Tecan Infinite F500 plate reader. In addition, the aqueous solubilities of several compounds were measured with a shake-flask procedure. Saturated solutions are filtered (polyethersulfone syringe, 0.2 μm pore) and analyzed by UV-vis spectroscopy (Agilent 8453).

Series [2] concerns the target T1, MIF (Homo sapiens (Human), UniProt P14174). The experiment in a line: HPP tautomerase assay (inhibition of the tautomerase activity of MIF). The series is classed as biochemical. On the procedure:
Inhibition of the tautomerase activity of MIF was measured using the substrate 4-hydroxyphenyl pyruvic acid (HPP) in a procedure largely adapted from previous reports. A solution of HPP (10 mM) in acetate buffer (0.5 M ammonium acetate, pH adjusted to 6.0) was prepared and allowed to incubate overnight in the dark at room temperature to allow for equilibration of the keto and enol forms. Following the incubation period, the HPP solution was stored at 4° C. and used for no more than a week. […] A negative control (containing water and DMSO in lieu of protein and inhibitor, respectively) and a positive control (containing DMSO in lieu of inhibitor) were also prepared. The reaction began upon the addition of HPP solution (final concentration: 1.0 mM and 2.5 mM). […] Absorbance was measured three times for each [inhibitor]-[HPP] combination. […] Reported Ki values represent the average value obtained from two assays performed on different days. (R)-ISO-1 (purchased from Santa Cruz Biotechnology) was used as a control.
Recombinant human MIF was expressed and purified according to published protocols. Briefly, for the purification of MIF, E. coli cell pellets were suspended in lysis buffer (20 mM Tris, pH 7.5; 20 mM sodium chloride; 10% glycerol; 2 mM magnesium chloride; 1 cOmplete mini protease inhibitor cocktail tablet per 250 mL of buffer). The solution was sonicated and centrifuged at 27,000G for 30 mins. The supernatant was filtered through a 0.22 μm syringe filter and loaded on a GE Healthcare Hi-Trap SP HP column in sequence with a GE Healthcare Hi-Trap Q SP column equilibrated with a buffer composed of 20 mM NaCl and 20 mM Tris, pH 7.5. […] To achieve highest purity, the flow-through was further purified with a GE Healthcare Superdex 200 column. The purified protein was concentrated with a 10 kDa centrifugal filter unit to 30 mg/mL, flash-frozen in liquid nitrogen, and stored at −80° C.
As in prior studies, the inhibition constants Ki were determined using HPP as the substrate. […] In addition, the aqueous solubilities of several compounds were measured with a shake-flask procedure.

For series [3], the target named is T1, MIF. Put plainly: Tautomerase assay using 4-hydroxyphenylpyruvate (HPP), initial virtual screening study. The series is classed as biochemical. To be noted: at 50 μM; HPP substrate. An excerpt:
Success in the past has come from exchange of the phenol for a 6:5 fused heteroaromatic incorporating a pyrrole or pyrazole that retains the hydrogen-bond donating character of phenol. However, the MIF active site is too constricted near Asn97 for this approach to be viable; addition of a methyl group ortho to the hydroxyl group for the compound in FIG. 1 leads to a ca. 100-fold loss in activity. Instead, interest has focused on direct replacement of the phenol by a pyrazole. […] Thus, an alternative series from the virtual screening and from de novo design was pursued, which provided the biaryltriazoles including 2. However, interest in 5 was renewed since in another phenol-containing inhibitor series rapid metabolic glucoronidation and sulfation were observed. It was decided to retest 5 in an HPP tautomerase assay using optimized protocols.

Setting [4] is: HPP as substrate, MIF tautomerase, read-out: Experimental inhibition constants, Ki.
The mark [5] stands for this setting: Table 3, HPP as substrate, unit inferred, read-out: HPP Ki.

T1 sequence (P14174 2-115): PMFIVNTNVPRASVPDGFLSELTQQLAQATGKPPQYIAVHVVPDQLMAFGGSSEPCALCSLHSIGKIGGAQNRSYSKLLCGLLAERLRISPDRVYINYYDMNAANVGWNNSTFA

The compound `CCOc1ccc(-c2cccc(Oc3ccc(-c4c[nH]nc4F)cc3C(=O)O)c2)cc1` [Compound 8w, 2-((4′-Ethoxy-[1,1′-biphenyl]-3-yl)oxy)-5-(3-fluoro-1H-pyrazol-4-yl)benzoic acid] yielded a solubility at 48 h in series [1] of 1.7 ± 0.7 µg/mL (≈ 4.06 µM). For the same compound, the Ki is roughly 0.07 µM on MIF [2] and 0.075 µM at MIF [2] (setting [4]).

Take `O=C(O)c1cc(-c2c[nH]nc2F)ccc1Oc1cccc(-c2ccc(OCCCN3CCOCC3)cc2)c1` [Compound 8x, 5-(3-Fluoro-1H-pyrazol-4-yl)-2-((4′-(3-morpholinopropoxy)-[1,1′-biphenyl]-3-yl)oxy)benzoic acid]: the solubility at 48 h in series [1] was 34.6 µg/mL and 67 µM.

For the compound `O=C(O)c1cc(-c2cn[nH]c2)ccc1Oc1ccc2ccccc2c1` [Compound 8g, 2-(Naphthalen-2-yloxy)-5-(1H-pyrazol-4-yl)benzoic acid], in series [1], the solubility at 48 h stood at 739 µg/mL (≈ 2240 µM). Further, at MIF [2] (setting [4]), the Ki is 4.3 µM.

On to `NS(=O)(=O)c1cc(-c2cn[nH]c2)ccc1Oc1ccc2ccccc2c1` [Compound 8i, 2-(Naphthalen-2-yloxy)-5-(1H-pyrazol-4-yl)benzenesulfonamide], for which the concentration in solution in series [1] (solubility at 48 h) came to 55.2 µg/mL (≈ 151 µM). Further, at MIF [2] (setting [4]), the Ki turned out to be 5.6 µM.

On to `O=C(O)c1cccc(-c2cn[nH]c2)c1` [Compound 5, reference compound], for which the aqueous solubility in series [1] is reported as 927+88 μg/mL. Moreover, the maximum inhibition at MIF [3] is on record as 30%.

Take `Cc1cccc(Oc2ccc(-c3cn[nH]c3)cc2C(=O)O)c1` [Compound 8c, 5-(1H-Pyrazol-4-yl)-2-(m-tolyloxy)benzoic acid]: on MIF [2] (setting [4]), the Ki was 3.8 µM.

Take `Cc1ccc2ccc(Oc3ccc(-c4cn[nH]c4)cc3C(=O)O)cc2c1` [Compound 9u, 2-((7-methylnaphthalen-2-yl)oxy)-5-(1H-pyrazol-4-yl)benzoic acid]: on MIF [2] (setting [5]), the Ki was determined as 1.9 µM.

Turning to `COc1ccc(Oc2ccc(-c3cn[nH]c3)cc2C(=O)O)cc1` [Compound 9h, 2-(4-methoxyphenoxy)-5-(1H-pyrazol-4-yl)benzoic acid], the Ki on MIF [2] (setting [5]) was determined as 2.3 µM.

With `O=C(O)c1cc(-c2c[nH]nc2F)ccc1Oc1cccc(-c2ccc(CCN3CCOCC3)cc2)c1` [Compound 9bb, 5-(3-fluoro-1H-pyrazol-4-yl)-2-((4′-(2-morpholinoethyl)-[1,1′-biphenyl]-3-yl)oxy)benzoic acid], the Ki on MIF [2] (setting [5]) turned out to be 0.33 µM.

`O=C(O)c1cc(-c2c[nH]nc2F)ccc1Oc1cc(C2CC2)c2ccccc2c1` [Compound 8r, 2-((4-Cyclopropylnaphthalen-2-yl)oxy)-5-(3-fluoro-1H-pyrazol-4-yl)benzoic acid]: the Ki on MIF [2] (setting [4]) is 0.11 µM.

As for `O=C(O)c1cc(-c2cn[nH]c2)ccc1Oc1cccc(Cl)c1` [Compound 9f, 2-(3-chlorophenoxy)-5-(1H-pyrazol-4-yl)benzoic acid], on MIF [2] (setting [5]), the Ki was 20 µM.

For `O=C(O)c1cc(-c2cn[nH]c2)ccc1Oc1cccc(F)c1` [Compound 8e, 2-(3-Fluorophenoxy)-5-(1H-pyrazol-4-yl)benzoic acid], at MIF [2] (setting [4]), the Ki was 1.7 µM.

For the compound `CCc1cccc2cc(Oc3ccc(-c4c[nH]nc4F)cc3C(=O)O)ccc12` [Compound 8p, 2-((5-Ethylnaphthalen-2-yl)oxy)-5-(3-fluoro-1H-pyrazol-4-yl)benzoic acid], at MIF [2] (setting [4]), the Ki was 0.17 µM. Moreover, on MIF [2] (HPP tautomerase assay), the “lowering of the Ki relative to 8n” value was found to be 3 fold.

Compound `O=C(O)c1cc(-c2c[nH]nc2F)ccc1Oc1ccc2ccccc2c1` [Compound 8n, 5-(3-Fluoro-1H-pyrazol-4-yl)-2-(naphthalen-2-yloxy)benzoic acid] had a solubility at 48 h in series [1] of 681 µg/mL (≈ 1960 µM).
